Our source for the IC50 values is patent US20260174742A1, “INHIBITORS OF CYCLIC ADP RIBOSE HYDROLASE AND METHODS OF USE THEREOF” (Flagship Pioneering Innovations VI, LLC, priority 2022, published 2026).

Molecules are shown by their SMILES.

What is called IC50 is the concentration at which inhibition is half-maximal.

This test concerns the target T1, Human recombinant CD38 (Homo sapiens, UniProt P28907).
T1 construct: purchased BPS Bioscience
T1 sequence (P28907 1-300): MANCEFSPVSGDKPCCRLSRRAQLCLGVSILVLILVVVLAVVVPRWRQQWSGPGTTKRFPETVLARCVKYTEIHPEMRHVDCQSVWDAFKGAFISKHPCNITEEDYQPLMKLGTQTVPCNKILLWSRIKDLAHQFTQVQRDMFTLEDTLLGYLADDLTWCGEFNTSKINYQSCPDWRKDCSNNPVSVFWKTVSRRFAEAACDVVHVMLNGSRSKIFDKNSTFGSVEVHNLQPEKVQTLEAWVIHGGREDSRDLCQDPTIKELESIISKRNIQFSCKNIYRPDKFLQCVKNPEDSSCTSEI
In words: CD38 hydrolase inhibition assay (ε-NAD substrate, fluorescence). The class given is biochemical. The following applies: 0.2 ng/μL CD38, 100 μM ε-NAD, 15 m at room temperature, excitation 300 nm, emission 410 nm. On the procedure:
Example 9: CD38 Hydrolase Inhibition Assay
The CD38 hydrolase inhibition assay measures the glycohydrolase activity of CD38, using an NAD analog as substrate and measuring formation of a fluorescent ADP ribose analog. A 4× buffer was prepared with 1M sucrose and 160 mM Tris-HCl at pH 7.4, for a final assay concentration of 250 mM sucrose and 40 mM Tris-HCl. The 4× solution was kept at 4° C. and warmed to room temperature before use. Tween20 was added to 1× buffer for a final concentration of 0.05%. Human recombinant CD38 (BPS Bioscience) was diluted to 0.4 ng/μL in 1× buffer and 12.5 μL added to each plate well. Inhibitors were added and DMSO content was normalized to the highest concentration on the plate, with an upper limit of 0.5%. Finally, ε-NAD was diluted to 200 μM in 1× buffer and 12.5 μL added to each plate well, for final well concentrations of 0.2 ng/μL CD38 and 100 μM ε-NAD. Plates were covered and incubated at room temperature for 15 m, and then read on a plate reader using excitation 300 nm and emission 410 nm. […] IC50s for test compounds were determined either using GraphPad Prism software v9.3, or CDD Vault.

For `CO[C@H]1CC[C@H](NC(=O)c2cc(C)cc(-n3ccnc3)c2)CC1` [Compound 101, 3-(imidazol-1-yl)-5-methyl-N-[(trans)-4-methoxycyclohexyl]benzamide], the IC50 was 0.1 to 1 µM.

For the compound `CO[C@H]1CC[C@H](NC(=O)c2cc(-c3cnn(C)c3)cc(-n3ccnc3)c2)CC1` [Compound 102, 3-(imidazol-1-yl)-5-(1-methylpyrazol-4-yl)-N-[(trans)-4-methoxycyclohexyl]benzamide], the IC50 was below 0.1 µM.

Regarding `CO[C@H]1CC[C@H](NC(=O)c2cc(N3CC[C@H](O)C3)cc(-n3ccnc3)c2)CC1` [Compound 104, 3-[(3S)-3-hydroxypyrrolidin-1-yl]-5-(imidazol-1-yl)-N-[(trans)-4-methoxycyclohexyl]benzamide], the IC50 fell in the range of 0.1 to 1 µM.

`CO[C@H]1CC[C@H](NC(=O)c2cc(-c3cncs3)cc(N3CCC[C@@H]3CO)c2)CC1` [Compound 105, 3-[(2R)-2-(hydroxymethyl)pyrrolidin-1-yl]-N-[(trans)-4-methoxycyclohexyl]-5-(1,3-thiazol-5-yl)benzamide]: the IC50 lay within 0.1 to 1 µM.

As to `COCCO[C@H]1CC[C@H](NC(=O)c2cc(-c3cnn(C)c3)cc(-c3cncs3)c2)CC1` [Compound 107, 3-(1-methylpyrazol-4-yl)-N-[(trans)-4-(2-methoxyethoxy)cyclohexyl]-5-(1,3-thiazol-5-yl)benzamide], the half-inhibitory concentration (IC50) is below 0.1 µM.

Take `CO[C@H]1CC[C@H](NS(=O)(=O)c2cc(C)cc(-n3ccnc3)c2)CC1` [Compound 108, 3-(imidazol-1-yl)-5-methyl-N-[(trans)-4-methoxycyclohexyl]benzene sulfonamide]: the 50% inhibitory concentration (IC50) was above 1 µM.
